Measurements from US9943471B2, “Beta-2-adrenergic receptor agonist for improving skin scar colour matching” (UNIVERSITY OF LEICESTER, priority 2013, dated 2018).
Like-named read-outs stand apart in the source and are kept apart here.

How the values were obtained:
melanocytes = conditions: cited from earlier work
[1] = system: full-thickness wounds, Red Duroc pig; test: Red Duroc pig wound scar study: scar area and wound area; format: in vivo; design: scar area reduction / scar area smaller than control wounds / wound area smaller than control (less swollen) / wound area larger than control (less contracted): concentration or dose not given beside the values
Protocol: A porcine wound scar study was conducted in the Red Duroc pig. 4 rows of 5 (2×2 cm) full-thickness wounds were created, either side of the spine, on the shaved backs of 10 Red Durocs (FIGS. 1, 4). […] Two wounds per animal were biopsied (6 mm punch) at 7, 14, 21, 28 and 42 days post wounding. The remaining 10 wound scars per animal were photographed and harvested at day 56 post-wounding, giving a total of 5 wounds per position, 50 wounds in total for each group. The scar closest to the average scar area, at each position, for both control and sal-treated wounds are presented (FIG. 5b). […] Indeed, by day 28 and 42 post-wounding the scar area of the sal-treated wounds was already 34.1% and 37.7% smaller than control wounds (FIG. 6a; ***P<0.001). Wound area was also measured in early time points.

βARs = system: βARs; design: dose or concentration left out as unconfirmed; conditions: cited from earlier work
[2] = system: full-thickness wounds, Red Duroc pig; test: Red Duroc pig wound scar study: scar scale scores; format: in vivo
From the text: Anatomically and physiologically, porcine skin is very similar to human skin [19]. Wounds in small mammal skin, which is untethered, heal primarily by wound contraction, whereas porcine and human skin wounds close primarily by wound re-epithelialisation. The Red Duroc pig is well established as a reproducible model of fibro proliferative and hypertrophic scar formation. Similar to human hypertrophic scars, Red Duroc pigs heal wounds with an excessive amount of collagen deposition and increased wound contraction. In addition, the wounds heal with hyperpigmentation at the wound margins creating hyperpigmented scars and the scars are raised, similar to human scars. […] A porcine wound scar study was conducted in the Red Duroc pig. 4 rows of 5 (2×2 cm) full-thickness wounds were created, either side of the spine, on the shaved backs of 10 Red Durocs (FIGS. 1, 4). […] Two wounds per animal were biopsied (6 mm punch) at 7, 14, 21, 28 and 42 days post wounding. The remaining 10 wound scars per animal were photographed and harvested at day 56 post-wounding, giving a total of 5 wounds per position, 50 wounds in total for each group. A number of scales have been developed to score the severity of human scars. The Vancouver scar scale (VSS), the Manchester scar scale (MSS) and the patient and observer scar assessment scale (POSAS). We developed our own scale to score the severity of the Red Duroc scars based on the VSS [7] and the MSS [8]. The patient and observer scar assessment scale (POSAS) could not be used as it requires patient involvement. The VSS measures four parameters: pigmentation, vascularity, pliability and height, while the MSS measures colour, contour, distortion and texture. Our scar scale was developed to score a number of scar characteristics including: pigmentation, colour match with surrounding tissue, skin sheen, pliability, texture and height contour.

melanoma cells = conditions: cited from earlier work
age spots = conditions: added topically, Chinese females with age spots; cited from earlier work
[3] = 5 mM in Granugel, 500 μl per wound daily, day 56, vs control

## CNCC(O)c1ccc(O)c(O)c1 (stereo not drawn) [Adrenaline, adrenaline]
melanocytes
  melanin production / melanogenesis in melanocytes: increased melanin production
melanocytes; listed as Epinephrine
  melanin production / melanogenesis in melanocytes: increases melanin synthesis

## NC[C@H](O)c1ccc(O)c(O)c1 [noradrenaline]
melanocytes
  melanin production / melanogenesis in melanocytes: no effect

## CC(C)(C)NCC(O)c1ccc(O)c(CO)c1 (stereo not drawn) [salbutamol]
[1]; 56 days post wounding, vs control
  scar area reduction: 47.1%
[1]; after 7 days
  wound area smaller than control (less swollen): 11%
[1]; after 14 days
  wound area larger than control (less contracted): 23%
[1]; by 28 days
  wound area vs control wounds: slightly smaller
[1]; day 28 post-wounding
  scar area smaller than control wounds: 34.1%
[1]; day 42 post-wounding
  scar area smaller than control wounds: 37.7%
[1]; early time points
  re-epithelialisation rate vs control wounds: No significant difference
melanocytes; melanocytes, in association with increased melanogenesis
  cAMP levels: enhances cAMP levels
βARs
  activation of βARs: activate all βARs
[2]; [3]
  improvement of colour match score: 44%
  improvement of height contour score: 34%
  improvement of pigmentation score: 48%
  improvement of pliability score: 22%
  improvement of sheen score: 53%
  improvement of texture score: 22%
[2]; day 56 post-wounding, P<0.0001
  scar appearance vs control scars: less hyper-pigmented

## C=CCCCCCCCCC(=O)N[C@@H](Cc1ccccc1)C(=O)O [undecylenoyl phenylalanine]
Melanoma cells
  melanin production: suppressed melanin production
Age spots
  skin lightening: skin lightening effect
